Data from ChEMBL document CHEMBL1201862, “PubChem BioAssay data set” (2004).
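48-hour exposure; five concentrations; linearly interpolated endpoints. At the GI50, growth is halved.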 Calls of active or inactive are those of the source. Cut-off read from the data, not from the text of the source: active = GI50 up to about 1.1 µM and inactive = higher.

Assays:
Assay in all cases: NCI-60 cell line screen, 48 h
786-0 = system: 786-0
A549 = system: A549
ACHN = system: ACHN
BT-549 = system: BT-549
CAKI-1 = system: CAKI-1
COLO 205 = system: COLO 205
DU-145 = system: DU-145
EKVX = system: EKVX
HCC 2998 = system: HCC 2998
HCT-116 = system: HCT-116
HCT-15 = system: HCT-15
HOP-62 = system: HOP-62
HOP-92 = system: HOP-92
HT-29 = system: HT-29
IGROV-1 = system: IGROV-1
KM12 = system: KM12
LOX IMVI = system: LOX IMVI
M14 = system: M14
MCF7 = system: MCF7
MDA-MB-231 = system: MDA-MB-231
MDA-MB-435 = system: MDA-MB-435
MDA-N = system: MDA-N
MOLT-4 = system: MOLT-4
NCI-H226 = system: NCI-H226
NCI-H23 = system: NCI-H23
NCI-H460 = system: NCI-H460
NCI/ADR-RES = system: NCI/ADR-RES
OVCAR-3 = system: OVCAR-3
OVCAR-4 = system: OVCAR-4
OVCAR-5 = system: OVCAR-5
OVCAR-8 = system: OVCAR-8
PC-3 = system: PC-3
SF-295 = system: SF-295
SF-539 = system: SF-539
SK-MEL-28 = system: SK-MEL-28
SK-MEL-2 = system: SK-MEL-2
SK-MEL-5 = system: SK-MEL-5
SK-OV-3 = system: SK-OV-3
SN12C = system: SN12C
SNB-19 = system: SNB-19
SNB-75 = system: SNB-75
SW-620 = system: SW-620
T47D = system: T47D
TK-10 = system: TK-10
U-251 = system: U-251
UACC-257 = system: UACC-257
UACC-62 = system: UACC-62
UO-31 = system: UO-31

O=C(NNc1cn[nH]c(=O)c1Cl)/C(=C/c1ccc2c(c1)OCO2)NC(=O)c1ccccc1
GI50 (786-0): 38.5 µM (inactive)
GI50 (A549): > 100 µM (inactive)
GI50 (ACHN): 59.8 µM (inactive)
GI50 (BT-549): 18.5 µM (inactive)
GI50 (CAKI-1): 22.9 µM (inactive)
GI50 (COLO 205): 46.9 µM (inactive)
GI50 (DU-145): 92 µM (inactive)
GI50 (EKVX): 19.1 µM (inactive)
GI50 (HCC 2998): 41.3 µM (inactive)
GI50 (HCT-116): 34.8 µM (inactive)
GI50 (HCT-15): 31.7 µM
GI50 (HOP-62): 57.1 µM (inactive)
GI50 (HOP-92): > 100 µM (inactive)
GI50 (HT-29): 41.5 µM (inactive)
GI50 (IGROV-1): 23.6 µM (inactive)
GI50 (KM12): 34.7 µM (inactive)
GI50 (LOX IMVI): 30.9 µM (inactive)
GI50 (M14): 61.8 µM (inactive)
GI50 (MCF7): 41.5 µM (inactive)
GI50 (MDA-MB-231): > 100 µM (inactive)
GI50 (MDA-MB-435): 79.4 µM (inactive)
GI50 (MDA-N): 44.7 µM (inactive)
GI50 (MOLT-4): 33.4 µM (inactive)
GI50 (NCI-H226): 21.9 µM (inactive)
GI50 (NCI-H23): 42.5 µM (inactive)
GI50 (NCI-H460): 35.6 µM (inactive)
GI50 (NCI/ADR-RES): 35.6 µM (inactive)
GI50 (OVCAR-3): 71.3 µM (inactive)
GI50 (OVCAR-4): 32.8 µM (inactive)
GI50 (OVCAR-5): > 100 µM (inactive)
GI50 (OVCAR-8): 36.7 µM (inactive)
GI50 (PC-3): 61.2 µM (inactive)
GI50 (SF-295): 71.3 µM (inactive)
GI50 (SF-539): 40.7 µM (inactive)
GI50 (SK-MEL-28): 74.3 µM (inactive)
GI50 (SK-MEL-2): 51.9 µM (inactive)
GI50 (SK-MEL-5): 40.8 µM (inactive)
GI50 (SK-OV-3): > 100 µM (inactive)
GI50 (SN12C): 50 µM (inactive)
GI50 (SNB-19): 76.2 µM (inactive)
GI50 (SNB-75): 24.9 µM (inactive)
GI50 (SW-620): 41.2 µM (inactive)
GI50 (T47D): 73.5 µM (inactive)
GI50 (TK-10): 34 µM (inactive)
GI50 (U-251): 53.5 µM (inactive)
GI50 (UACC-257): > 100 µM (inactive)
GI50 (UACC-62): 35.2 µM (inactive)
GI50 (UO-31): 48.2 µM (inactive)
